Laboratory results: patent publication US11453660B2, “Androgen receptor and glucocorticoid receptor modulators” (ONCOSTELLAE, S.L., priority 2017, dated 2022)
Numbering of substitutions follows the chain as printed.

How the values were obtained:
[1] = target: T1, Rat Androgen Receptor (Rattus norvegicus, UniProt P15207); experiment: Rat Androgen Receptor Binding (polarscreen AR competitor assay, fluorescence polarization); conditions: displacement of Fluormone AL Green, 4 hours at RT, read-out: AR rat-fluorimetric
T1 construct: purchased Life Technologies A15880
T1 sequence (P15207 646-902 limits assumed): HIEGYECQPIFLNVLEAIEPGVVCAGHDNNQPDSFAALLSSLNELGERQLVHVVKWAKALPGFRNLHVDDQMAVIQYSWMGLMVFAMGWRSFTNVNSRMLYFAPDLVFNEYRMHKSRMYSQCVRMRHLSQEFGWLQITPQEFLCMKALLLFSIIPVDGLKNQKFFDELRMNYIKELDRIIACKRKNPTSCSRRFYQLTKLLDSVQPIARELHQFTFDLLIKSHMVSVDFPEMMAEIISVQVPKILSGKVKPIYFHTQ
Summary of the method: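 Fluorescence-polarization competition of Fluormone AL Green binding to rat androgen receptor; compounds screened in duplicate at 1 and 10 μM, 4 h at RT, read at λexc 485/λem 535 nm. IC50 from 1:10 dilution series, 10 μM to 0.1 nM, in 1× buffer.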

[2] = target: T2, human androgen receptor (Homo sapiens, UniProt P10275, T878A); experiment: Human Androgen Receptor Binding (radioligand binding, LnCap prostate cancer cell line); conditions: LnCap cells, displacement of [^3H]-methyltrienolone, 2 hours at 37° C.; read-out: AR LNCaP
T2 construct: endogenously expressed human androgen receptor using the LnCap prostate cancer cell line; endogenous in cells; host or cells: LNCaP prostate cancer cell line (whole cells)
T2 sequence (P10275 1-920 T878A): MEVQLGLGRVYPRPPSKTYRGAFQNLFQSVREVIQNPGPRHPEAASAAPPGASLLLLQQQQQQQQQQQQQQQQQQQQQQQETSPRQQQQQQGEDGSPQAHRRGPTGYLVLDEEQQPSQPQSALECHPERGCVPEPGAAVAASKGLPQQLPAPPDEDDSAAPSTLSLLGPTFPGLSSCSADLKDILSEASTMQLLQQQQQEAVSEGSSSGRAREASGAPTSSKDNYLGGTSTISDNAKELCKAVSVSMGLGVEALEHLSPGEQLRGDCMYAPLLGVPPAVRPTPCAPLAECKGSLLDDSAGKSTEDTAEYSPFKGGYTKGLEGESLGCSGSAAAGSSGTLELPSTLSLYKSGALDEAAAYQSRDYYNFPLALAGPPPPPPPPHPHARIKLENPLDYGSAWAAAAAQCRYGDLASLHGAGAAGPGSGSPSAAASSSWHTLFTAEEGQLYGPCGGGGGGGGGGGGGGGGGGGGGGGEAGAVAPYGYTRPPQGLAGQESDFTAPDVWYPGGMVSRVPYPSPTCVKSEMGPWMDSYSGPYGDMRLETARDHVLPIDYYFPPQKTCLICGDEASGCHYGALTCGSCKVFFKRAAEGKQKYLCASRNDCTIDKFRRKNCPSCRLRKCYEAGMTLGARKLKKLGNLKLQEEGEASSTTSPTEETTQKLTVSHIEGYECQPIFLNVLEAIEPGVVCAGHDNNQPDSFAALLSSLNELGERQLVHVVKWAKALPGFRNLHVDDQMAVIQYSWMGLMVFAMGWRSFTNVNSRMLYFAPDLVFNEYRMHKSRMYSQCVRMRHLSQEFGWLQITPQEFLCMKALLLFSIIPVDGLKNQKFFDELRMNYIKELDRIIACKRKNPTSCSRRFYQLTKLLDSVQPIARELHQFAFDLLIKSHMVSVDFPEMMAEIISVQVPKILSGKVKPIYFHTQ
Summary of the method: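 Whole-cell displacement of [3H]-methyltrienolone from endogenous AR (T878A) in LnCap cells, in RPMI with 0.1% BSA and triamcinolone acetonide. Compounds 10 μM to 0.1 nM in 1:10 steps, 2 h at 37 °C; cells washed, SDS-lysed, bound radioactivity by scintillation counting for IC50.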

[3] = target: T3, AR-Receptor (Homo sapiens, UniProt P10275); experiment: Functional Assay AR-Receptor (MDA-MB-453 cells, luciferase); type: cell-based; conditions: antagonist effect in the presence of DHT 1 nM, 24 h, luciferase luminescence, read-out: AR antag KB
T3 sequence (P10275 1-920 Q868H): T2 sequence (P10275 1-920 T878A) with Q868H, A878T
Experimental: Functional Assay AR-Receptor
MDA-MB-453 cells were cultured in DMEM (ATCC, ref 30-2002), 10% FBS, 1% penicillin, 1% streptomycin, 75 μg/ml gentamycin.
The day before performing assay, the cells were trypsinized and seeded in a 384-well plate (Greiner, ref 781098) (8000 cells/well) in 50 μl of complete culture medium. Cells were stores at 37° C. in a 5% CO2 atmosphere overnight.
The medium was replaced by 50 μl complete growth medium with 0.1% FBS. Compounds were dispensed with Echo 550 (Labcyte) and incubated for 24 h at 37° C. in a 5% CO2 atmosphere. Antagonist effect was measured in the presence of DHT 1 nM.
After incubation, assay medium removed and 20 μl of 1× Promega lysis buffer were added to each well. The plate was incubated 15 minutes at RT and quick-frozen to −80° C. and the thaw to room temperature. 50 μl of luciferase substrate (E4550, Promega) were added to each well and luminescence (integration time 1000 msec) was read in an EnSpire multilabel reader (Perkin Elmer).

IC50 [1] [nM]	IC50 [2] [nM]	Kb [3] [nM]	SMILES
≥ 1000	≥ 1000	< 100	CC(=O)C1=C(C)NC(C)=C(C(=O)OCc2ccncc2)C1c1csc2ccccc12 (stereo not shown) [Example B12, Pyridin-4-ylmethyl 5-acetyl-4-(benzo[b]thiophen-3-yl)-2,6-dimethyl-1,4-dihydropyridine-3-carboxylate]
100 to 1000	≥ 1000	100 to 1000	CC(=O)C1=C(C)NC(C)=C(C(=O)OCC2CCCCC2)C1c1csc2ccccc12 (stereo not shown) [Example B21, Cyclohexylmethyl 5-acetyl-4-(benzo[b]thiophen-3-yl)-2,6-dimethyl-1,4-dihydropyridine-3-carboxylate]
≥ 1000	–	100 to 1000	CC(=O)C1=C(C)NC(C)=C(C(=O)OCCc2ccccc2)C1c1csc2ccccc12 (stereo not shown) [Example C10, Phenethyl 5-acetyl-4-(benzo[b]thiophen-3-yl)-2,6-dimethyl-1,4-dihydropyridine-3-carboxylate]
100 to 1000	–	100 to 1000	CC(=O)C1=C(C)NC(C)=C(C(=O)Cc2ccccc2)C1c1csc2ccccc12 (stereo not shown) [Example C52, 1-(5-acetyl-4-(benzo[b]thiophen-3-yl)-2,6-dimethyl-1,4-dihydropyridin-3-yl)-2-phenylethan-1-one]
